What was measured:
[1] = tested on: classical subtype glioblastoma multiform (626T); assay: cells; settings: Homo sapiens, 72 h
Experimental: (§1) Particularly, the cell growth inhibition effect was measured by WST-1 cell proliferation assay [http://www.roche-applied-science.com/PROD_INF/MANUALS/CELL_MAN/apoptosis—087—088.pdf]. The compound of formula 1 was loaded in a 384-well cell culture plate. Three types of glioblastoma multiform cell lines [proneural subtype (559T), mesenchymal subtype (592T), and classical subtype (626T)], normal human astrocytes (NHA), a lung cancer cell line (A549), and a glioblastoma multiform cell line (U87MG) were distributed in the plate at the density of 4.5×10^3 cells/well, and the medium was filled up to make 50 μl per well. At this time, the concentration of the solvent DMSO for the compound of formula 1 was no more than 0.2%. After culturing the cells for 72 hours, 5 mg/ml of WST-1 reagent was added by 5 μl per well, followed by reaction for 3˜4 hours. Then OD450 was measured to investigate the effect of the compound of formula 1 on cell proliferation.

[2] = tested on: glioblastoma multiform cell line (U87MG); assay: cells
Experimental: as §1

[3] = tested on: lung cancer cell line (A549); assay: cells; settings: Homo sapiens, A549, 72 h
Experimental: as §1

[4] = tested on: mesenchymal subtype glioblastoma multiform (592T); assay: cells; settings: Homo sapiens, 72 h
Experimental: as §1

[5] = tested on: proneural subtype glioblastoma multiform (559T); assay: cells; settings: Homo sapiens, 72 h
Experimental: as §1

[6] = tested on: GBM #3 glioblastoma multiform patient originated cells; assay: Neurosphere formation inhibition, GBM #3; format: cell-based, human; set-up: key: S: strong effect; I: intermediate effect; R: rare effect; settings: GBM #3, type A (proneural), Azathioprine 1 μM, duration 21 day
Experimental: (§2) Particularly, to investigate neurosphere formation, glioblastoma multiform cells were cultured for a certain time and the cells were distributed again in culture vessels, followed by additional culture. Then, the number of newly generated neurospheres was measured. First, the glioblastoma multiform patient originated cells were sub-cultured, which were distributed in a 96-well plate (20, 50, and 200 cells in 50 μl of culture medium/well). […] Then, the compound of formula 1 (azathioprine) and the compound of Comparative Example 1 (Temodal) were added to 50 μl of cell culture medium with the same concentrations as the above once a week, which were then cultured for 7˜23 days. When neurosphere was formed at least 50 μm in the control group not treated with the compound, the number of neurospheres in each well was counted to compare the neurosphere formation before and after the treatment of the compound of formula 1 (azathioprine) and the compound of Comparative Example 1 (Temodal).
(§3) The glioblastoma multiform cells used in this experiment were classified into 4 types, which are type A, type B, type C, and type D, according to the gene expression pattern. Methylation of MGMT (O6-me-G methyltransferase), the DNA repair protein, was confirmed in each cell line. […]

[7] = tested on: GBM #4 glioblastoma multiform patient originated cells; assay: Neurosphere formation inhibition, GBM #4; format: cell-based, human; set-up: key: S: strong effect; I: intermediate effect; R: rare effect; settings: GBM #4, type B (classical), Azathioprine 1 μM, duration 9 day
Experimental: as §2, §3

[8] = tested on: GBM #9 glioblastoma multiform patient originated cells; assay: Neurosphere formation inhibition, GBM #9; format: cell-based, human; set-up: key: S: strong effect; I: intermediate effect; R: rare effect; settings: GBM #9, type D (non-classified), Azathioprine 1 μM, duration 21 day
Experimental: as §2, §3

[9] = tested on: U2932 Human DLBCL (Diffuse large B-cell lymphoma); assay: Secondary cytotoxicity test, U2932; format: cell-based
Experimental: as §1
(§4) To investigate the cell growth inhibition effect of the compound of formula 1 of the present invention (azathioprine) in many different cell lines, secondary cytotoxicity test was performed with the cell lines listed in Table 5 by the same manner as described in Example 1.

HaCat Human keratinocyte = assay: Secondary cytotoxicity test, HaCat; format: cell-based
Experimental: as §1, §4

[10] = tested on: classical subtype (626T) glioblastoma multiform cells; settings: concentrations starting from 100 μM, culture for 7 days
Experimental: (§5) Thymidine incorporation assay was performed to investigate the cell growth inhibition effect of the compound of the present invention. Three subtypes of glioblastoma multiform cells [proneural subtype (559T), mesenchymal subtype (592T), classical subtype (626T)] and normal human astrocytes (NHA) were N cultured in a 96-well plate at the density of 1×10^4 cells/well, to which 2 μCi/well of 3H-thymidine was added. Azathioprine was added thereto at different concentrations starting from 100 μM, followed by culture for 7 days. 200 μl/well of scintillation fluid (biofluor) was added thereto and count per minute (cpm) was calculated.

[11] = tested on: mesenchymal subtype (592T) glioblastoma multiform cells; settings: concentrations starting from 100 μM, culture for 7 days
Experimental: as §5

[12] = tested on: proneural subtype (559T) glioblastoma multiform cells; settings: concentrations starting from 100 μM, culture for 7 days
Experimental: as §5

GBM (559T) cells = settings: GBM (559T) cell lysate, azathioprine 10 μM, 24 hours later, compared with before the treatment
[13] = read-out: Cell Growth Inhibition (% Inhibition)
[14] = Homo sapiens, U-87 MG, 72 h, read-out: Cell Growth Inhibition (% Inhibition)

Cn1cnc([N+](=O)[O-])c1Sc1ncnc2nc[nH]c12 [Azathioprine, 6-(1-methyl-4-nitro-1H-imidazol-5-ylthio)-7H-purine]
GI50 [1]: 3.1 µM | inhibition at 0.032 µM [1, 13]: 20.2% | inhibition at 0.1 µM [1, 13]: 34.9% | inhibition at 0.32 µM [1, 13]: 30% | inhibition at 1 µM [1, 13]: 42.5% | inhibition at 3.2 µM [1, 13]: 61.8% | inhibition at 10 µM [1, 13]: 76.3% | GI50 ([2]; Homo sapiens, U-87 MG, 72 h): > 10 µM | inhibition at 0.032 µM [2, 14]: 3.2% | inhibition at 0.1 µM [2, 14]: -9.9% | inhibition at 0.32 µM [2, 14]: 10.5% | inhibition at 1 µM [2, 14]: 6.5% | inhibition at 3.2 µM [2, 14]: 3.2% | inhibition at 10 µM [2, 14]: -12.7% | cancer cell growth inhibition ([2]; U87MG, WST-1, up to 10 μM): did not inhibit the cancer cell growth | GI50 [3]: > 10 µM | inhibition at 0.032 µM [3, 13]: 6.7% | inhibition at 0.1 µM [3, 13]: 15.3% | inhibition at 0.32 µM [3, 13]: 21.5% | inhibition at 1 µM [3, 13]: 24.2% | inhibition at 3.2 µM [3, 13]: 26% | inhibition at 10 µM [3, 13]: 32% | GI50 [4]: 5.5 µM | inhibition at 0.032 µM [4, 13]: -3.9% | inhibition at 0.1 µM [4, 13]: 2.1% | inhibition at 0.32 µM [4, 13]: 8.3% | inhibition at 1 µM [4, 13]: 22.6% | inhibition at 3.2 µM [4, 13]: 46% | inhibition at 10 µM [4, 13]: 57.2% | GI50 [5]: 1.3 µM | inhibition at 0.032 µM [5, 13]: -4.2% | inhibition at 0.1 µM [5, 13]: 2.6% | inhibition at 0.32 µM [5, 13]: 9.7% | inhibition at 1 µM [5, 13]: 35.9% | inhibition at 3.2 µM [5, 13]: 65.8% | inhibition at 10 µM [5, 13]: 78.6% | inhibition of neurosphere formation [6]: S | inhibition of neurosphere formation [7]: S | inhibition of neurosphere formation [8]: S | IC50 [9]: 4.2 µM | IC50 (HaCat Human keratinocyte): 6.3 µM | cell growth inhibition effect (3H-thymidine incorporation) [10]: significant cell growth inhibition effect | cell growth inhibition effect (3H-thymidine incorporation) [11]: significant cell growth inhibition effect | cell growth inhibition effect (3H-thymidine incorporation) [12]: significant cell growth inhibition effect | concentrations of azathioprine metabolites (TGMP, MeTIMP, MeTGMP, TIMP) in cell lysate (GBM (559T) cells): significantly raised
